# How the values were obtained:
# [1] = ORP (oxidative-reductive potential) measurement of solutions and treated water; format: physicochemical; details: for ORP (mV vs SHE): early flowback water, Example 19, 1.7 mmol/L oxidant; for ORP (mV vs SHE), maximum: produced water
# Procedure: Example 9: Hydrogen Peroxide Residual Concentration and interference. A sodium peracetate oxidant solution was produced according to the procedure in Example 4 and diluted to 2800 mg/L (28.5 mmol/L) with either distilled water, for clean water conditions, or tap water containing about 0.18 mg/L copper, which served as an activation catalyst. Some samples were spiked with 30 or 60 mg/L (0.88 or 1.76 mmol/L, respectively) hydrogen peroxide from a 1000 mg/L stock solution. […] The temperature of the samples was maintained at 25±2° C. with a heated water bath. The ORP response was monitored over time to observe the impact of adding low concentrations of hydrogen peroxide. The pH was measured using a high sodium electrode (Oakton model 35805-05) with three point calibration and automatic temperature correction. The ORP (oxidative-reductive potential) of solutions was measured using an Oakton model 35805-15 ORP probe calibrated to the standard hydrogen electrode (SHE) using Thermo/Orion ORP standard 967901.
# (§1) Water parameters were measured by a variety of methods. The pH was measured using a high sodium electrode (Oakton model 35805-05) with three point calibration and automatic temperature correction. The ORP (oxidative-reductive potential) of solutions was measured using an Oakton model 35805-15 ORP probe calibrated to the standard hydrogen electrode (SHE) using Thermo/Orion ORP standard 967901. Sodium ion concentration was measured using a Cole-Parmer ion selective electrode, EW-27504-30, with two point calibration of a sodium standard solution of NaCl. Chloride ion concentration was measured using a Cole-Parmer ion selective electrode, SC-27504-08, with two point calibration of a chloride standard solution of NaCl. All measurements using HACH methods were measured using a HACH DR900 colorimeter. Calcium, magnesium and total hardness concentrations were measured using HACH method 8030. Sulfate concentration was measured using HACH method 10248. Aluminum concentration was measured using HACH method 8012. Iron concentration was measured using HACH method 10249 modified with a longer reaction time to minimize interferences from organic impurities. Total suspended solids (TSS) concentration was measured using HACH method 8006 modified for smaller volumes. Turbidity was measured using HACH method 8237. ATP (adenosine triphosphate) concentration was measured using the LuminUltra 2nd Generation metabolic ATP measurement technology with the LuminUltra Quench Gone-Organic Modified sampling method, a PhotonMaster Luminometer and LumiCalc software. Acid producing bacteria (ABP) and sulfate reducing bacteria (SRB) cell culture concentrations were measured with standard 1 mL serial dilutions using Intertek APB and SRB culture media, 1% salinity.
# bacteria = test: ATP concentration (LuminUltra metabolic ATP measurement) in oxidant-treated water; format: cell-based
# [2] = Gel breaking of guar gum mixture; details: for Viscosity at 2 Hour Contact Time: 10 g/L guar gum, 35-40 °C
# Procedure: Example 15: Gel Breaking ability for well squeeze to remove “polymer damage”. The use of the sodium peracetate oxidant formulation was tested for the depolymerization and break down of guar gum. […] The guar mixture was made by rapidly mixing 10 g/L food grade guar gum powder into a 10 g/L sodium chloride solution in distilled water. The blended mixture was heated to about 35-40° C. in a heated water bath for at least one hour to fully hydrate the guar. The mixture appeared translucent with fine, milky white suspended solids. […] The first was a control sample to which no oxidant was added. The remaining samples had increasing amounts of sodium peracetate oxidant added to them. The oxidant was prepared as described in Example 4 and the pH was adjusted to about 9.1 with sodium bisulfate before use. The oxidant was rapidly mixed with the guar mixture resulting in a pale yellow color. The mixtures were placed in a water bath at about 35-40° C. and the yellow color gradually faded away over the next hour. After two hours the samples were cooled to room temperature.
# [3] = system: sulfate reducing bacteria (SRB); test: Sulfate reducing bacteria serial dilution culture (Intertek SRB media); format: cell-based; details: produced water, Example 17, 30 min contact, no grow back
# [4] = system: acid producing bacteria (APB); test: Acid producing bacteria serial dilution culture (Intertek APB media); format: cell-based; details: produced water, Example 17, 30 min contact, no grow back
# Procedure: The water's color rapidly turned orange and the ORP increased to about 700 mV vs SHE. During the first 5 to 10 minutes of slow mixing there was some floc formation. After 20 minutes stirring was ceased and the flocculated solids were allowed to settle, however the water remained hazy orange. […] The ATP concentration was reduced by about 93% from the untreated water concentration and the bioassay results indicated at least 4 log reductions in acid producing and sulfate reducing bacteria relative to the untreated water's ATP concentration (approximately 1.8×10^6 microbial equivalents per mL).
# as §1, with “ATP (adenosine triphosphate) concentration was measured using the LuminUltra 2nd Generation metabolic ATP measurement technology with the LuminUltra Quench Gone-Organic Modified sampling method, a PhotonMaster Luminometer and LumiCalc software.” left out
# pH of treated water = format: physicochemical
# Procedure: as §1
# [5] = Jar test water parameters (hardness, calcium, magnesium, chloride, sodium, aluminum, iron, TSS, turbidity); details: produced water, Example 17; for Magnesium (mg/L as CaCO3): untreated 170; for Calcium (mg/L as CaCO3): untreated 1080; for Hardness (mg/L as CaCO3): untreated 1250
# Procedure: The water sample was thoroughly mixed and 500 mL dispensed into 1 L beakers to conduct tests using a Phipps and Bird programmable jar tester. The jar tester was programmed for a rapid mix of high shear force at 295 rpm impeller speed for 1.25 minutes, followed by a low shear impeller speed of 25 rpm for 10 minutes to promote coalescence and floc formation. All tests were conducted at room temperature, 20-25° C. The 500 mL water samples were dosed with varying amounts of sodium peracetate oxidant solution during the rapid mix from an oxidant solution that was 2.1% wt/vol sodium peracetate (1.6% wt/vol measured as PAA). Also during the rapid mix the jar samples were dosed with 0.5 to 1 mg/L of an anionic polymer dispersion as a coalescence and floc aid.
# Example 17: Oxidative clarification of suspended solids and metals. A produced water sample originating from the Denver-Julesburg basin formation in CO, USA contained suspended and dissolved solids, bacteria and up to about 2% salinity. The water sample was thoroughly mixed and 500 mL dispensed into 1 L beakers to conduct tests using a Phipps and Bird programmable jar tester. The jar tester was programmed for a rapid mix of high shear force at 295 rpm impeller speed for 1.25 minutes followed by a low shear impeller speed of 25 rpm for 20 minutes to promote floc formation and allow for pH and ORP monitoring prior to settling of solids. All tests were conducted at room temperature, 18-21° C. The 500 mL water samples were dosed with varying amounts of sodium peracetate oxidant solution during the rapid mix from an oxidant solution that was 2.2% wt/vol sodium peracetate (1.7% wt/vol measured as PAA). In some cases, during the rapid mix the jar samples were dosed with up to 5 mg/L of an anionic polymer dispersion as a floc aid.
# [6] = Piceance produced water, pH 7.00, 22 °C, 500 mg/L initial dose
# [7] = produced water, Example 17, 52 mg/L
# [8] = produced water, Example 18, 0.30 mmol/L oxidant
# [9] = 29 mg/L, untreated >>10,000 cells/mL
smiles,measurement,setting,value
"CC(=O)O[O-].[Na+] [sodium peracetate oxidant, sodium peracetate]","ORP, rapid initial increase","[1]; Piceance produced water, pH 7.00, 22 °C, 100 mg/L initial dose",~800 mV vs SHE
same,ORP after decline,"[1]; Piceance produced water, pH 7.00, 22 °C, 100 mg/L initial dose, after 120 minutes",about 470 mV
same,"ORP, later level",[1]; [6],about 1040 mV vs SHE
same,"ORP, rapid initial increase",[1]; [6],about 890 mV vs SHE
same,ORP,"[1]; Piceance produced water, first 26 mg/L dose of sequential dosing",more than 800 mV vs SHE
same,ORP maximum,"[1]; Piceance produced water, single dose 78 mg/L (60 mg/L as PAA)",870 mV vs SHE
same,ORP,"[1]; Piceance produced water, single dose 78 mg/L, in less than 60 minutes",below 600 mV vs SHE
same,ORP (mV vs SHE),[1]; contact time 3 minutes,701 mV vs SHE
same,ORP (mV vs SHE),[1]; contact time 13 minutes,581 mV vs SHE
same,ORP (mV vs SHE),[1]; contact time 35 minutes,446 mV vs SHE
same,ORP (mV vs SHE),[1]; contact time 90 minutes,420 mV vs SHE
same,ORP of water drawn from the frac tanks,"[1]; frac on the fly make-up water, about 15 minute contact time",less than 500 mV
same,"ORP (mV vs SHE), maximum","[1]; Example 17, 29 mg/L",over 700 mV vs SHE
same,"ORP (mV vs SHE), maximum","[1]; Example 17, 29 mg/L plus 5 mg/L floc aid",over 700 mV vs SHE
same,"ORP (mV vs SHE), maximum","[1]; Example 17, 29 mg/L plus 5 mg/L floc aid, listed as Sodium Peracetate Oxidant",770 mV vs SHE
same,"ORP (mV vs SHE), maximum","[1]; Example 17, 29 mg/L, listed as Sodium Peracetate Oxidant",766 mV vs SHE
same,"ORP (mV vs SHE), maximum","[1]; Example 17, 52 mg/L",over 800 mV vs SHE
same,"ORP (mV vs SHE), maximum","[1]; Example 17, 52 mg/L, listed as Sodium Peracetate Oxidant",809 mV vs SHE
same,"ORP (mV vs SHE), maximum","[1]; Example 18, 0.30 mmol/L oxidant",766 mV vs SHE
same,rate of reduction of ATP concentration,"bacteria; early flowback water, Example 19, 1.7 mmol/L, ATP at 10, 30 and 60 minutes contact time",The sodium peracetate oxidant treated flowback water had a slightly greater rate of reduction of ATP concentration than chlorine dioxide.
same,ATP reduction at 30 min CT,"bacteria; produced water, Example 17, 29 mg/L",99.0%
same,ATP reduction at 30 min CT,"bacteria; produced water, Example 17, 29 mg/L plus 5 mg/L floc aid",99.6%
same,ATP reduction at 30 min CT,"bacteria; produced water, Example 17, 29 mg/L plus 5 mg/L floc aid, listed as Sodium Peracetate Oxidant",99.6%
same,"ATP (pg/mL), at 30 min CT","bacteria; produced water, Example 17, 29 mg/L plus 5 mg/L floc aid, untreated 135",0.6 pg/mL
same,ATP reduction at 30 min CT,"bacteria; produced water, Example 17, 29 mg/L, listed as Sodium Peracetate Oxidant",99.0%
same,"ATP (pg/mL), at 30 min CT","bacteria; produced water, Example 17, 29 mg/L, untreated 135",1.4 pg/mL
same,ATP reduction at 30 min CT,bacteria; [7],99.3%
same,ATP reduction at 30 min CT,"bacteria; produced water, Example 17, 52 mg/L, listed as Sodium Peracetate Oxidant",99.3%
same,"ATP (pg/mL), at 30 min CT","bacteria; produced water, Example 17, 52 mg/L, untreated 135",0.9 pg/mL
same,"ATP (pg/mL), at 30 min CT",bacteria; [8],1.4 pg/mL
same,ATP reduction at 30 min CT,bacteria; [8],99.0%
same,"ATP (pg/mL), at 15 min CT","bacteria; produced water, Example 18, 0.30 mmol/L oxidant, untreated 135",4.1 pg/mL
same,Viscosity at 2 Hour Contact Time,[2]; oxidant conc. 65 mg/L,same as initial
same,Viscosity at 2 Hour Contact Time,[2]; oxidant conc. 220 mg/L,slightly reduced
same,Viscosity at 2 Hour Contact Time,[2]; oxidant conc. 440 mg/L,very reduced
same,preservation of guar mixture on standing at room temperature,"[2]; about 65 mg/L oxidant, control lost viscosity overnight, biofilm after a week",retained its original viscosity and milky color for at least a week
same,SRB (cells/mL and log reduction),[3]; 29 mg/L plus 5 mg/L floc aid,5 log (no grow
same,SRB (cells/mL and log reduction),[3]; [9],5 log (no grow
same,SRB (cells/mL and log reduction),[3]; 52 mg/L,5 log (no grow
same,APB (cells/mL and log reduction),[4]; 29 mg/L plus 5 mg/L floc aid,5 log (no grow
same,APB (cells/mL and log reduction),[4]; [9],5 log (no grow
same,APB (cells/mL and log reduction),[4]; 52 mg/L,5 log (no grow
same,pH,"pH of treated water; early flowback water, Example 19, 1.7 mmol/L oxidant, contact time 3 minutes",6.83
same,pH,"pH of treated water; early flowback water, Example 19, 1.7 mmol/L oxidant, contact time 13 minutes",6.87
same,pH,"pH of treated water; early flowback water, Example 19, 1.7 mmol/L oxidant, contact time 35 minutes",6.88
same,pH,"pH of treated water; early flowback water, Example 19, 1.7 mmol/L oxidant, contact time 90 minutes",6.89
same,pH,"pH of treated water; produced water (Denver-Julesburg), Example 17, 29 mg/L",6.2
same,pH,"pH of treated water; produced water, Example 17, 29 mg/L plus 5 mg/L floc aid (Polymer B-40)",6.3
same,pH,pH of treated water; [7],5.9
same,pH,pH of treated water; [8],6.2
same,Magnesium (mg/L as CaCO3),[5]; 29 mg/L plus 5 mg/L floc aid,200 mg/L as CaCO3
same,Calcium (mg/L as CaCO3),[5]; 29 mg/L plus 5 mg/L floc aid,940 mg/L as CaCO3
same,Hardness (mg/L as CaCO3),[5]; 29 mg/L plus 5 mg/L floc aid,1140 mg/L as CaCO3
same,Magnesium (mg/L as CaCO3),[5]; 52 mg/L,200 mg/L as CaCO3
same,Calcium (mg/L as CaCO3),[5]; 52 mg/L,1020 mg/L as CaCO3
same,Hardness (mg/L as CaCO3),[5]; 52 mg/L,1220 mg/L as CaCO3
